# In patent publication US20110176998A1, “IMAGING AND THERAPY OF VIRUS-ASSOCIATED TUMORS” (THE JOHNS HOPKINS UNIVERSITY, priority 2007, published 2011):
# “And” between values parts separate entries of the source, which are not always exact repeats. Equal entries are not always repeated.
# Columns and labels:
# [1] = test system: EBV(+) Burkitt's lymphoma xenografts (Akata); test: [125I]FIAU imaging and ex vivo biodistribution, EBV(+) Akata xenografts; type: in vivo, SCID mice; details: for % ID/g derived from SPECT-CT images, tumor: bortezomib 2 μg/g, one mouse, SD from slices; for % ID/g ± SD, Blood / % ID/g ± SD, Kidney / % ID/g ± SD, Liver / % ID/g ± SD, Muscle / % ID/g ± SD, Spleen / % ID/g ± SD, Tumor: n = 4
# Description: 5×10^6 cells were resuspended in 200 μL Matrigel Matrix (ED Biosciences, Bedford, Mass.) and injected subcutaneously near the shoulder of 6-7-week-old male severe combined immunodeficient (SCID) mice.
# All work was undertaken in accordance with the regulations of Johns Hopkins Animal Care and Use Committee. Adult male SCID mice (5-6 weeks old) were purchased from the National Cancer Institute (Frederick, Md.). Three days before imaging, all mice received 1 mL intraperitoneal (i.p.) injections of 0.9% NaI solution daily for 3 consecutive days to block the thyroid uptake of free radioiodide. Twenty four hours prior to [^125I]FIAU injection, lytic induction was initiated with bortezomib. Each mouse was injected i.p. with a dose of 2 μg/g of bortezomib. Bortezomib was made fresh in PBS and filter sterilized with a 0.2 μm syringe filter (Millipore, Billerica, Mass.) immediately before each injection. Control mice were injected i.p. with PBS alone. On the day of radiotracer injection, the animals were anesthetized with 2.3 mL/kg of a mixture of 25 mg/mL ketamine and 2 mg/mL acepromazine in 0.9% saline injected i.p. Isoflurane (0.5%-1% at 0.5-1 L/minute) was administered to maintain anesthesia.
# Four mice were sacrificed at each indicated time by cervical dislocation. Tumor, liver, spleen, kidney, fat, blood, and muscle were removed and weighed after which the tissue radioactivity was measured using an automated gamma counter. A 0.1 mL sample of blood was also collected. […] The standard deviation (SD) was also calculated.
# (§1) Quantitative data were not derived from the images except for once instance that employed SPECT-CT (see below). […] The detector material or scintillator crystal is composed of NaI[Tl], which has a pixel size 2 mm×2 mm×6 mm. […] The static acquisition protocol of the LumaGEM™ software provided with the X-SPECT was used.
# [2] = test system: Rael Burkitt's lymphoma (EBV); test: [125I]FIAU imaging and tissue distribution, Rael xenografts; type: in vivo, SCID mice
# Description: Bortezomib was always administered 24 hours before [^125I]FIAU, also intravenously. […] 2 μg/g of bortezomib stimulated the maximum target to non-target signal ratio at 96 hours after treatment in this cell line. The radioactivity depicted by the arrow in FIG. 14B at the 96 hour time point was within the tumor as shown by concurrent ex vivo gamma counting. Similar results were obtained in animals bearing another EBV(+) Burkitt cell line (Rael) xenograft. […] The percentage of injected dose per gram (% ID/g) derived from the images was 1.13±0.01 and 0.70±0.01 at 72 and 96 hours, respectively. Only one mouse was imaged with SPECT-CT, so the standard deviation (SD) values were derived from the multiple slices of each image.
# [3] = test system: EBV(−) osteosarcoma xenografts (V143b); test: [125I]FIAU imaging, V143b control tumors; type: in vivo, mice; details: with or without bortezomib
# Excerpt: as §1
# [4] = test system: BC3 lymphoma (KSHV); test: [125I]FIAU imaging and tissue distribution, BC3 xenograft; type: in vivo, SCID mice
# Excerpt: (§2) The approach observed in EBV-associated tumors is also applicable to other KSHV-associated tumors as shown in studies on two primary effusion lymphoma (PEL) cell lines that harbor KSHV. […] Finally, when induction with bortezomib was followed by treatment with [^131I]FIAU tumors regressed (FIG. 19C).
# [5] = test system: BCBL1 lymphoma (KSHV); test: [125I]FIAU imaging and tissue distribution, BCBL1 xenograft; type: in vivo, SCID mice
# Excerpt: as §2
# [6] = test system: KT gastric cancer (EBV); test: [125I]FIAU imaging and tissue distribution, KT xenograft
# [7] = test system: TK143b osteosarcoma (constitutive EBV TK); test: [125I]FIAU imaging and tissue distribution, TK143b tumors
# [8] = test system: human osteosarcoma 143B cells expressing EBV TK; test: tumor growth, EBV-TK expressing 143B tumors; type: in vivo, mice
# Description: To determine whether EBV-TK mediated concentration of radioisotope in tumor tissue was adequate to achieve a therapeutic effect, mice with tumors were treated with [^131I]FIAU or buffered saline (FIG. 18A-18C).
# (§3) Biostatistics. Linear regression and curve fitting were undertaken carried using GraphPad Prism software version 5.00 for Windows, GraphPad Software, San Diego Calif. USA, www.graphpad.com.
# [9] = test system: EBV(+) Burkitt's lymphoma (Rael); test: tumor growth, EBV(+) Burkitt's lymphoma (Rael) xenografts; type: in vivo, SCID mice
# Description: (§4) Therefore, an evaluation of a therapeutic isotope was carried out. As described above, SCID mice engrafted with EBV Burkitt's lymphoma xenografts received either buffer or bortezomib followed the next day by treatment with [^131I]FIAU or no treatment. […] Thus, bortezomib allowed targeting of [^131I]FIAU with therapeutic effect. Other proteasome inhibitors are also likely to be active. Several are in clinical trial.
# as §3
# [10] = test system: EBV(+) Burkitt's lymphoma cell line (Akata); test: tumor growth, EBV(+) Burkitt's lymphoma (Akata) xenografts; type: in vivo, SCID mice; details: bortezomib followed by [131I]FIAU; second cell line
# Description: as §4
# [11] = test system: KSHV(+) primary effusion lymphoma (BCBL1); test: tumor growth, KSHV(+) primary effusion lymphoma (BCBL1) xenograft; type: in vivo, SCID mice; details: bortezomib induction followed by [131I]FIAU
# Excerpt: as §2
# [12] = scale-up of mouse biodistribution data to the human, MIRD dosimetry (OLINDA)
# Excerpt: Murine biodistribution data were converted to equivalent human data for dosimetry by assuming that the organ or tumor to whole-body concentration ratio in the mouse is equivalent to that in the human.
# The initial (i.e., 2-h) activity concentration in the mouse tumor of 1.95% ID/g becomes 7×10^−4% ID/g, assuming a 1 gm tumor in the human. At this concentration, and assuming negligible biological clearance of ^131I, as shown in the biodistribution data, the absorbed dose per administered activity to a 1 gm tumor in a 70 kg human is 0.1 mGy/MBq (0.38 rad/mCi). […] The 5 to 20 GBq (135 to 540 mCi) required to deliver this dose-range is well within normal organ tolerance given the normal organ absorbed dose estimates listed in the table. A total administered activity of 20 GBq would result in 0.2 and 0.02 Gy to the kidneys and red marrow, respectively. Based on external beam and radiopeptide experience, the kidneys can tolerate 25 to 27 Gy before the onset of toxicity; the red marrow maximally tolerated dose is 2 Gy. Administration of a 540 mCi dose would likely present logistical problems, but these could be accommodated by fractioning the administration over three to four injections.
# [13] = test system: EBV(+) gastric adenocarcinoma (KT); test: tumor growth, EBV(+) gastric adenocarcinoma (KT) xenograft; details: bortezomib induction followed by [131I]FIAU
# Description: Bortezomib was administered intravenously at 1.67 μg/gram. […] For imaging or treatment, FIAU was administered 24 hours after bortezomib. In each of the experiments described bortezomib was administered as a single dose.
# [14] = Rael, bortezomib induction, 4 days p.i., 5 μCi, N 4
# [15] = bortezomib induction, 5 days p.i., 5 μCi, N 3
# [16] = bortezomib induction, 4 days p.i., 5 μCi, N 5
# [17] = KT, bortezomib induction, 4 days p.i., 5 μCi, N 3
# [18] = TK143b, constitutive EBV TK, 4 days p.i., 5 μCi, N 3
# [19] = total administered activity of 20 GBq
compound,measurement,setting,value
"O=c1[nH]c(=O)n([C@@H]2O[C@H](CO)[C@@H](O)[C@@H]2F)cc1[125I] [[^125I]FIAU, [^125I]2-fluoro-2′-deoxy-beta-D-5-iodouracil-arabinofuranoside]","% ID/g derived from SPECT-CT images, tumor",[1]; 72 hours after radiopharmaceutical,1.13±0.01 % ID/g
same,increase of tumor uptake over baseline after bortezomib,"[1]; 96 h, bortezomib vs PBS",~22 fold
same,"% ID/g derived from SPECT-CT images, tumor",[1]; 96 hours after radiopharmaceutical,0.70±0.01 % ID/g
same,"% ID/g ± SD, Blood","[1]; Bortezomib treatment, 96 h",0.022 ± 0.010 % ID/g
same,"% ID/g ± SD, Kidney","[1]; Bortezomib treatment, 96 h",0.070 ± 0.010 % ID/g
same,"% ID/g ± SD, Liver","[1]; Bortezomib treatment, 96 h",0.016 ± 0.002 % ID/g
same,"% ID/g ± SD, Muscle","[1]; Bortezomib treatment, 96 h",0.040 ± 0.005 % ID/g
same,"% ID/g ± SD, Spleen","[1]; Bortezomib treatment, 96 h",0.060 ± 0.011 % ID/g
same,"% ID/g ± SD, Tumor","[1]; Bortezomib treatment, 96 h",0.85 % ID/g and 0.850 ± 0.102 % ID/g
same,"% ID/g ± SD, Blood","[1]; PBS treatment, 96 h",0.033 ± 0.009 % ID/g
same,"% ID/g ± SD, Kidney","[1]; PBS treatment, 96 h",0.068 ± 0.014 % ID/g
same,"% ID/g ± SD, Liver","[1]; PBS treatment, 96 h",0.029 ± 0.011 % ID/g
same,"% ID/g ± SD, Muscle","[1]; PBS treatment, 96 h",0.030 ± 0.010 % ID/g
same,"% ID/g ± SD, Spleen","[1]; PBS treatment, 96 h",0.014 ± 0.006 % ID/g
same,"% ID/g ± SD, Tumor","[1]; PBS treatment, 96 h",0.039 % ID/g and 0.039 ± 0.010 % ID/g
same,"tumor visualization, planar gamma imaging","[1]; bortezomib 2 μg/g 24 hours before, 4 days postinjection",clearly visible
same,time of peak tumor uptake,"[1]; postinjection, pretreated with bortezomib",96 h
same,"tumor uptake, planar gamma imaging",[1]; pretreated with PBS only,no tumor uptake was evident
same,"% ID/g ± SD, Kidney",[2]; [14],0.146 ± .054 % ID/g
same,"% ID/g ± SD, Liver",[2]; [14],0.052 ± .027 % ID/g
same,"% ID/g ± SD, Muscle",[2]; [14],0.084 ± .012 % ID/g
same,"% ID/g ± SD, Spleen",[2]; [14],0.064 ± .011 % ID/g
same,"% ID/g ± SD, Tumor",[2]; [14],1.200 ± 0.356 % ID/g
same,tumor visualization,"[2]; following bortezomib, by 30 hours after radiopharmaceutical injection",clearly visualized
same,tumor uptake on imaging,[3],No tumor uptake was evident
same,tumor imaging,[4]; after bortezomib,allowed imaging
same,"% ID/g ± SD, Kidney",[4]; [15],0.027 ± 0.003 % ID/g
same,"% ID/g ± SD, Liver",[4]; [15],0.009 ± 0.002 % ID/g
same,"% ID/g ± SD, Muscle",[4]; [15],0.008 ± 0.004 % ID/g
same,"% ID/g ± SD, Spleen",[4]; [15],0.008 ± 0.002 % ID/g
same,"% ID/g ± SD, Tumor",[4]; [15],1.213 ± 0.214 % ID/g
same,"range of uptake as % ID/g (color bar), SPECT-CT","[5]; 48 hours p.i., following bortezomib",1.53 % ID/g
same,tumor imaging,[5]; after bortezomib,allowed imaging
same,"% ID/g ± SD, Kidney",[5]; [16],0.167 ± 0.038 % ID/g
same,"% ID/g ± SD, Liver",[5]; [16],0.0617 ± 0.022 % ID/g
same,"% ID/g ± SD, Muscle",[5]; [16],0.078 ± 0.005 % ID/g
same,"% ID/g ± SD, Spleen",[5]; [16],0.064 ± 0.014 % ID/g
same,"% ID/g ± SD, Tumor",[5]; [16],1.100 ± 0.361 % ID/g
same,"range of uptake as % ID/g (color bar), SPECT-CT","[6]; KT tumor, 72 hours p.i., following bortezomib",0.68 % ID/g
same,"% ID/g ± SD, Kidney",[6]; [17],0.090 ± 0.030 % ID/g
same,"% ID/g ± SD, Liver",[6]; [17],0.050 ± 0.017 % ID/g
same,"% ID/g ± SD, Muscle",[6]; [17],0.080 ± 0.062 % ID/g
same,"% ID/g ± SD, Spleen",[6]; [17],0.080 ± 0.035 % ID/g
same,"% ID/g ± SD, Tumor",[6]; [17],0.598 ± 0.472 % ID/g
same,initial activity concentration in the mouse tumor,[7]; 2-h,1.95 % ID/g
same,tumor to muscle ratio,[7]; 2 hours post-infusion,4.6
same,tumor to muscle ratio,[7]; 24 hours post-infusion (peak),205
same,tumor to muscle ratio,[7]; 96 hours post-infusion,114
same,"% ID/g ± SD, Kidney",[7]; [18],0.033 ± 0.058 % ID/g
same,"% ID/g ± SD, Liver",[7]; [18],0.013 ± 0.006 % ID/g
same,"% ID/g ± SD, Muscle",[7]; [18],0.015 ± 0.014 % ID/g
same,"% ID/g ± SD, Spleen",[7]; [18],0.027 ± 0.015 % ID/g
same,"% ID/g ± SD, Tumor",[7]; [18],1.667 ± 0.681 % ID/g
same,tumor imaging,[7]; cell line engineered to express constitutively the EBV-TK,readily imaged
same,radioactivity levels in the tumor,[7]; from 2 hours until last time point at 96 hours,remained constant
O=c1[nH]c(=O)n([C@@H]2O[C@H](CO)[C@@H](O)[C@@H]2F)cc1[131I] [[^131I]FIAU],tumor growth rate in chimeric tumors,"[8]; 10% of tumor cells harbor the EBV-TK, 1.7 mCi",substantially slowed
same,tumor growth dose response,"[8]; EBV-TK expressing tumors, 1 mCi or 3 mCi",increasing effects on tumor growth
same,tumor growth slope,"[8]; TK tumors, 1.6 mCi IV",flattened
same,tumor growth,[9]; bortezomib followed 24 hours later by [131I]FIAU,stopped tumor growth
same,tumor growth curves vs buffer alone,[9]; buffer followed by [131I]FIAU,similar
same,tumor growth,[10],parallel results
same,tumor growth,[11],regressed
same,tumor activity concentration scaled to the human,[12]; assuming a 1 gm tumor in the human,7×10^−4 % ID/g
same,absorbed dose to the kidneys,[12]; [19],0.2 Gy
same,absorbed dose to the red marrow,[12]; [19],0.02 Gy
same,tumor growth rate,[13],diminished
